Experimental data: ChEMBL document CHEMBL5154822, “Novel inhibitors of AChE and Aβ aggregation with neuroprotective properties as lead compounds for the treatment of Alzheimer's disease” (Eur J Med Chem, 2022)

Assays:
[1] = target: T1, Acetylcholinesterase (Mus musculus, UniProt P21836); assay: Inhibition of AChE in mouse cerebral cortex using acetylthiocholine iodide as substrate preincubated for 10 mins followed by substrate addition and measured for 180 secs by Ellman's spectrophotometric method; type: tissue-based
T1 sequence (P21836 whole entry): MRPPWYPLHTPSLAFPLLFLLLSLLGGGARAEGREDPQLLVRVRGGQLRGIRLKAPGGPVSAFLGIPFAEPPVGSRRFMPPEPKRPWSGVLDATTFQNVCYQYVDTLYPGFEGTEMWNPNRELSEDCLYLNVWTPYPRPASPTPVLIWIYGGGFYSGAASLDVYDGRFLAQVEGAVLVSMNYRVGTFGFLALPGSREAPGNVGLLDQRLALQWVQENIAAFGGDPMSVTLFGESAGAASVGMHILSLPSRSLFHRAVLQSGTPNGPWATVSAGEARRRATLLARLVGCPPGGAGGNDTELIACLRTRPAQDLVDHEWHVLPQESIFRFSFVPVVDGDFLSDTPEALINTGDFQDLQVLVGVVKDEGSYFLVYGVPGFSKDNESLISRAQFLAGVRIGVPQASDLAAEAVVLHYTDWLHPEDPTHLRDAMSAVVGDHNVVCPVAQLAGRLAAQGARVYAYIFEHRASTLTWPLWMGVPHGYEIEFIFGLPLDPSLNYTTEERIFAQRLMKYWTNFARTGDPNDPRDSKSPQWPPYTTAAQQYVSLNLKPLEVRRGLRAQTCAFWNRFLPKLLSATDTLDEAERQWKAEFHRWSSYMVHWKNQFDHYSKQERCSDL

[2] = Inhibition of CYP3A4 in human liver microsomes using testosterone as substrate preincubated for 10 mins followed by NADPH addition and measured after 10 mins by LC-MS/MS analysis; type: ADME, Microsome
[3] = target: Cytochrome P450 2C9 (Homo sapiens, UniProt P11712); assay: Inhibition of CYP2C9 in human liver microsomes using diclofenac as substrate preincubated for 10 mins followed by NADPH addition and measured after 10 mins by LC-MS/MS analysis; type: ADME, Microsome
[4] = target: Cytochrome P450 2D6 (Homo sapiens, UniProt P10635); assay: Inhibition of CYP2D6 in human liver microsomes using dextromethorphan as substrate preincubated for 10 mins followed by NADPH addition and measured after 10 mins by LC-MS/MS analysis; type: ADME, Microsome
[5] = Inhibition of CYP3A4 in human liver microsomes using midazolam as substrate preincubated for 10 mins followed by NADPH addition and measured after 10 mins by LC-MS/MS analysis; type: ADME, Microsome
[6] = target: T2, Acetylcholinesterase (Mus musculus) (UniProt P21836); assay: Inhibition of AChE in mouse cerebral cortex using acetylthiocholine iodide as substrate at 40 uM preincubated for 10 mins followed by substrate addition and measured for 180 secs by Ellman's spectrophotometric method; type: tissue-based; conditions: time 780.0 sec
T2 sequence (whole entry): T1 sequence (P21836 whole entry)

Cytochrome P450 2C9, sequence (P11712 whole entry): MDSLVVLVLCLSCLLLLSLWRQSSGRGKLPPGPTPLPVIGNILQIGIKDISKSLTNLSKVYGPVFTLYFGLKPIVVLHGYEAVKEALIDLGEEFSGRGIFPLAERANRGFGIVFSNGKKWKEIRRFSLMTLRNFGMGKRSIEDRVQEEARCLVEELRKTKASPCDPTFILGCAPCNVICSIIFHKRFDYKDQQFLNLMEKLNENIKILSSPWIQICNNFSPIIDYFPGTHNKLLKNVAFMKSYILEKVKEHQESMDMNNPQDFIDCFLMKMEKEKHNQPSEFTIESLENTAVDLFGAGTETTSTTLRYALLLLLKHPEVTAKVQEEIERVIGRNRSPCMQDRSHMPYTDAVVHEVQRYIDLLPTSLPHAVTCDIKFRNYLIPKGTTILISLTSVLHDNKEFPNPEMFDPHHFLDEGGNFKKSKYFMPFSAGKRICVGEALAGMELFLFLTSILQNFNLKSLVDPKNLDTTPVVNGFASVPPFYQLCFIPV
Cytochrome P450 2D6, sequence (P10635 whole entry): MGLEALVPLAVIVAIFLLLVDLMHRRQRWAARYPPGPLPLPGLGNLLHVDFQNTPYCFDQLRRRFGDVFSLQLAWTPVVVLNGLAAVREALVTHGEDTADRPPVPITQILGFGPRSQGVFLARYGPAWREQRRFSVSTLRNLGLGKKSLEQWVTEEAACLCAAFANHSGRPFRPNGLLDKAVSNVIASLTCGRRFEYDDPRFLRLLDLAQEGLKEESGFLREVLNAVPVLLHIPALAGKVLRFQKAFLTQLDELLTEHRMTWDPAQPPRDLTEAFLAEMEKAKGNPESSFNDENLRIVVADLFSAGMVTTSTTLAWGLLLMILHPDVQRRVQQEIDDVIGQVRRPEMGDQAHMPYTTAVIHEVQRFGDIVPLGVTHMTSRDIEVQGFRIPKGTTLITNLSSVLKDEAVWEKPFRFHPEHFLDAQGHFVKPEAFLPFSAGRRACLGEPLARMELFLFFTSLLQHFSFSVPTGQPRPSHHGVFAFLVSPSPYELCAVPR

Row | Compound | IC50 [1] | also measured
1 | COc1cc2c(cc1OC)S(=O)(=O)C(CC1(F)CCN(Cc3ccccc3)CC1)C2 (centres undefined) | 4.1 nM | –
2 | COc1ccc(S(=O)(=O)/C=C/C2CCN(Cc3ccccc3)CC2)cc1OC | 67.6 nM | –
3 | COc1cc2c(cc1OC)S(=O)(=O)C(CC1(F)CCN(Cc3ccccc3C)CC1)C2 (centres undefined) | 12.1 nM | –
4 | COc1cc2c(cc1OC)S(=O)(=O)C(CC1(F)CCN(Cc3cccc(F)c3)CC1)C2 (centres undefined) | 5.1 nM | –
5 | COc1cc2c(cc1OC)S(=O)(=O)C(CC1CCN(Cc3ccccc3)CC1)C2 (centres undefined) | 4.4 nM | –
6 | COc1ccc(S(=O)(=O)/C(Cl)=C/C2CCN(Cc3ccccc3)CC2)cc1OC | 340 nM | –
7 | COc1cc2c(cc1OC)S(=O)(=O)C(CC1(F)CCN(Cc3cccc(C)c3)CC1)C2 (centres undefined) | 3.8 nM | –
8 | COc1cc2c(cc1OC)S(=O)(=O)C(CC1CCN(Cc3cccc(F)c3)CC1)C2 (centres undefined) | 4.4 nM | –
9 | COc1cc2c(cc1OC)S(=O)(=O)C(CC1CCN(Cc3c(F)cc(F)cc3F)CC1)C2 (centres undefined) | 128 nM | –
10 | COc1cc2c(cc1OC)S(=O)(=O)C(CC1CCN(Cc3ccc(F)cc3)CC1)C2 (centres undefined) | 11.3 nM | –
11 | COc1cc2c(cc1OC)S(=O)(=O)C(F)(CC1CCN(Cc3cccc(F)c3)CC1)C2 (centres undefined) | – | IC50 [2]: > 20000 nM; IC50 [3]: > 20000 nM; IC50 [4]: > 20000 nM; IC50 [5]: > 20000 nM
12 | COc1cc2c(cc1OC)S(=O)(=O)C(CC1(F)CCN(Cc3cccc(Cl)c3)CC1)C2 (centres undefined) | 5 nM | –
13 | COc1cc2c(cc1OC)S(=O)(=O)C(CC1(F)CCN(Cc3ccc(F)cc3)CC1)C2 (centres undefined) | 11.3 nM | –
14 | COc1cc2c(cc1OC)S(=O)(=O)C(CC1CCN(Cc3ccccc3)CC1)=C2 | 317 nM | –
15 | COc1cc2c(cc1OC)S(=O)(=O)C(CC1(F)CCN(Cc3ccc(F)cc3F)CC1)C2 (centres undefined) | 7.1 nM | –
16 | COc1cc2cc(CC3CCN(Cc4ccccc4)CC3)sc2cc1OC | – | inhibition [6]: 46.6%
